From ChEMBL document CHEMBL5260848, “Recent advancements in the development of bioactive pyrazoline derivatives” (Eur J Med Chem, 2020)
In brackets after ≈: the same amount, converted by molar mass.

Legend:
Rattus norvegicus [1] = assay: Antiinflammatory activity in carrageenan induced rat paw edema model relative to indomethacin; assay type: functional
Escherichia coli [2] = assay: Antibacterial activity against Escherichia coli assessed as inhibition of bacterial growth; assay type: functional
Pseudomonas aeruginosa [3] = assay: Antibacterial activity against Pseudomonas aeruginosa assessed as inhibition of bacterial growth; assay type: functional
Bacillus subtilis [4] = assay: microbe, parasite or virus in culture
Staphylococcus aureus [5] = assay: microbe, parasite or virus in culture
RAW264.7 [6] = assay: Cytotoxicity against mouse RAW264.7 cells relative to control; assay type: functional
RAW264.7 [7] = assay: Antiinflammatory activity in LPS-induced mouse RAW264.7 cells assessed as inhibition of LPS induced NO production; assay type: functional, cell-based
HeLa = assay: Cytotoxicity against human HeLa cells assessed as reduction in cell viability; assay type: functional, cell-based
HepG2 [8] = assay: Cytotoxicity against human HepG2 cells assessed as reduction in cell viability; assay type: functional, cell-based
Rattus norvegicus [9] = assay: Antiinflammatory activity in carrageenan induced rat paw edema model assessed inhibition of TNF-alpha level; assay type: functional, organism-based
Rhizopus arrhizus = assay: Antifungal activity against Rhizopus oryzae; assay type: functional
Staphylococcus aureus [10] = assay: Antibacterial activity against Staphylococcus aureus; assay type: functional
[11] = tested on: Mycobacterium tuberculosis; assay: microbe, parasite or virus in culture; settings: 120 h
[12] = tested on: Mycobacterium tuberculosis; assay: Antimycobacterial activity against Mycobacterium tuberculosis; assay type: functional
Aspergillus niger [13] = assay: Antifungal activity against Aspergillus niger by agar dilution method; assay type: functional
Candida albicans [14] = assay: Antifungal activity against Candida albicans by agar dilution method; assay type: functional
Pseudomonas aeruginosa [15] = assay: Potency index, ratio of ampicillin MIC to compound MIC for Pseudomonas aeruginosa by agar dilution method; assay type: functional
Pseudomonas aeruginosa [16] = assay: microbe, parasite or virus in culture
Escherichia coli [17] = assay: microbe, parasite or virus in culture
HepG2 [18] = assay: Cytotoxicity against human HepG2 cells by SRB assay; assay type: functional
HepG2 [19] = assay: Cytotoxicity against human HepG2 cells assessed as growth inhibition; assay type: functional, cell-based
[20] = tested on: Mycolicibacterium smegmatis; assay: Antimycobacterial activity against Mycobacterium smegmatis; assay type: functional
Candida albicans [21] = assay: microbe, parasite or virus in culture
Staphylococcus aureus [22] = assay: microbe, parasite or virus in culture; remark: listed apart in the source
HepG2 [23] = assay: Cytotoxicity against human HepG2 cells; assay type: functional, cell-based
Plasmodium berghei = assay: Antimalarial activity against Plasmodium berghei infected in mouse assessed as suppression percentage at 48.46 umol/kg administered daily relative to control; assay type: functional; settings: dose 48.46 µmol/kg
Escherichia coli [24] = assay: Antibacterial activity against Escherichia coli by agar dilution method; assay type: functional
Staphylococcus aureus [25] = assay: Antibacterial activity against Staphylococcus aureus by agar dilution method; assay type: functional
Escherichia coli [26] = assay: Potency index, ratio of ampicillin MIC to compound MIC for Escherichia coli by agar dilution method; assay type: functional
Bacillus subtilis [27] = assay: Antibacterial activity against Bacillus subtilis by agar dilution method; assay type: functional
Pseudomonas aeruginosa [28] = assay: Antibacterial activity against Pseudomonas aeruginosa by agar dilution method; assay type: functional
Mus musculus [29] = species: Mus musculus; assay: Antianxiety activity in mouse assessed as increase in number of entries in different arms; assay type: functional
Mus musculus [30] = species: Mus musculus; assay: Antidepressant activity in mouse assessed as […] by tail suspension test; assay type: functional
Mus musculus [31] = species: Mus musculus; assay: Antidepressant activity in mouse assessed as […] by forced swimming test; assay type: functional
[32] = Cytotoxicity against human HPLF cells assessed as reduction in cell viability incubated for 48 hrs by MTT assay; assay type: functional
[33] = Cytotoxicity against human HPC cells assessed as reduction in cell viability incubated for 48 hrs by MTT assay; assay type: functional
MCF7 = assay: cells; settings: Homo sapiens
HSC-2 = assay: Cytotoxicity against human HSC-2 cells assessed as reduction in cell viability incubated for 48 hrs by MTT assay; assay type: functional
Ca9-22 = assay: Cytotoxicity against human Ca9-22 cells assessed as reduction in cell viability incubated for 48 hrs by MTT assay; assay type: functional
[34] = Cytotoxicity against human HGF cells assessed as reduction in cell viability incubated for 48 hrs by MTT assay; assay type: functional
HSC-3 = assay: Cytotoxicity against human HSC-3 cells assessed as reduction in cell viability incubated for 48 hrs by MTT assay; assay type: functional
HepG2 [35] = assay: cells; settings: Homo sapiens
Streptococcus pyogenes = assay: Antibacterial activity against Streptococcus pyogenes assessed as inhibition of microbial growth; assay type: functional
Aspergillus clavatus = assay: Antifungal activity against Aspergillus clavatus; assay type: functional
Aspergillus niger [36] = assay: Antifungal activity against Aspergillus niger; assay type: functional
Staphylococcus aureus [37] = assay: Antibacterial activity against Staphylococcus aureus assessed as inhibition of microbial growth; assay type: functional
Candida albicans [38] = assay: Antifungal activity against Candida albicans; assay type: functional

SMILES: COc1ccc(N2N=C(/C=C/c3ccc(C)o3)CC2c2ccc(C)o2)cc1 (centres undefined)
- Activity (Rattus norvegicus [1]): 104%

SMILES: CC1(C)S[C@@H]2[C@H](NC(=O)Cc3ccccc3)C(=O)N2[C@H]1C(=O)O [PENICILLIN G]
- MIC (Escherichia coli [2]): 3.12 µg/mL (≈ 9.35 µM)
- MIC (Pseudomonas aeruginosa [3]): 3.12 µg/mL (≈ 9.35 µM)
- MIC (Bacillus subtilis [4]): 0.39 µg/mL (≈ 1.17 µM)
- MIC (Staphylococcus aureus [5]): 0.39 µg/mL (≈ 1.17 µM)

SMILES: C[C@]12CC[C@H]3[C@@H](CC=C4C[C@@H](O)CC[C@@]43C)[C@@H]1CC[C@@H]2C1=NN(C(N)=S)C(c2ccccc2Cl)C1 (some centres undefined)
- Activity (RAW264.7 [6]): >90%
- IC50 (RAW264.7 [7]): 860 nM

SMILES: C[C@]12CC[C@H]3[C@@H](CC=C4C[C@@H](O)CC[C@@]43C)[C@@H]1CC[C@@H]2C1=NN(C(N)=S)C(c2cccc(F)c2)C1 (some centres undefined)
- Activity (RAW264.7 [6]): >90%
- IC50 (RAW264.7 [7]): 1020 nM

SMILES: Cc1ccc(/C=C/C2=NN(C(N)=O)C(c3ccc(C)s3)C2)s1 (centres undefined)
- Activity (Rattus norvegicus [1]): 103%

SMILES: COc1cc(C2CC(c3ccc(Cl)cc3)=NN2C(N)=S)cc(OC)c1OC (centres undefined)
- IC50 (HeLa): 9.37 µM
- IC50 (HepG2 [8]): 16 µM

SMILES: Cc1ccc(/C=C/C2=NN(c3ccccc3)C(c3ccc(C)s3)C2)s1 (centres undefined)
- IC50 (Rattus norvegicus [9]): 1.7 nM

SMILES: COc1ccc(C2CC(c3cc4ccccc4oc3=O)=NN2c2ccccc2)cc1OC (centres undefined)
- MIC (Rhizopus arrhizus): 12.5 µg/mL (≈ 29.3 µM)
- MIC (Staphylococcus aureus [10]): 12.5 µg/mL (≈ 29.3 µM)

SMILES: CN[C@@H]1[C@H](O[C@H]2[C@H](O[C@H]3[C@H](O)[C@@H](O)[C@H](N=C(N)N)[C@@H](O)[C@@H]3N=C(N)N)O[C@@H](C)[C@]2(O)C=O)O[C@@H](CO)[C@H](O)[C@H]1O [STREPTOMYCIN]
- MIC [11]: 6.25 µg/mL (≈ 10.7 µM)
- MIC [12]: 6.25 µg/mL (≈ 10.7 µM)

SMILES: COc1cccc2cc(C3CC(c4cc(Br)ccc4O)=NO3)c3nnnn3c12 (centres undefined)
- MIC (Aspergillus niger [13]): 25 µg/mL (≈ 56.8 µM)
- MIC (Candida albicans [14]): 25 µg/mL (≈ 56.8 µM)

SMILES: Cc1cccc2cc(C3CC(c4cc(Br)ccc4O)=NN3)c3nnnn3c12 (centres undefined)
- Ratio (Pseudomonas aeruginosa [15]): 2
- MIC (Candida albicans [14]): 25 µg/mL (≈ 59.1 µM)

SMILES: O=C(c1ccncc1)N1N=C(c2ccc(Cl)cc2)CC1c1cc2ccccc2nc1Cl (centres undefined)
- MIC (Pseudomonas aeruginosa [16]): 12.5 µg/mL (≈ 27.9 µM)
- MIC (Escherichia coli [17]): 12.5 µg/mL (≈ 27.9 µM)

SMILES: COc1ccc(C2CC(c3cc(OC)c(OC)c(OC)c3)=NN2C(C)=O)cc1OCc1cn(Cc2ccc(F)cc2)nn1 (centres undefined)
- GI50 (HepG2 [18]): 6.7 µM

SMILES: Clc1ccc(-c2csc(N3N=C(c4cccs4)CC3c3ccc(Cl)cc3Cl)n2)cc1 (centres undefined)
- IC50 (HepG2 [19]): 2980 nM

SMILES: COc1ccc(-c2nn(-c3ccc(Cl)cc3)cc2C2CC(c3ccc(-c4ccccc4)cc3)=NN2)cc1 (centres undefined)
- MIC [20]: 15.6 µg/mL (≈ 30.9 µM)
- MIC (Candida albicans [21]): 15.6 µg/mL (≈ 30.9 µM)
- MIC (Staphylococcus aureus [22]): 15.6 µg/mL (≈ 30.9 µM)

SMILES: COc1ccc2c(c1)C1=NN(CCCN(C)C)C3=CC=C([N+](=O)[O-])C(N2)C31 (centres undefined)
- MIC [11]: 3.12 µg/mL (≈ 8.46 µM)
- MIC [12]: 3.12 µg/mL (≈ 8.45 µM)

SMILES: CN(C)c1ccc(C2CC(c3c4ccccc4cc4ccccc34)=NN2c2nc(-c3ccc(F)cc3)c(C#N)c(=O)[nH]2)cc1 (centres undefined)
- IC50 (HepG2 [23]): 4.21 µg/mL (≈ 7.28 µM)

SMILES: CCC(=O)N1N=C(c2ccccc2)CC1c1cn(-c2ccccc2)nc1-c1ccc(C)cc1 (centres undefined)
- Activity (Plasmodium berghei): 45.52%

SMILES: Oc1ccc(Br)cc1C1=NNC(c2cc3ccccc3n3nnnc23)C1 (centres undefined)
- Ratio (Pseudomonas aeruginosa [15]): 2
- MIC (Escherichia coli [24]): 50 µg/mL (≈ 122 µM)
- MIC (Staphylococcus aureus [25]): 25 µg/mL (≈ 61.1 µM)
- Ratio (Escherichia coli [26]): 2
- MIC (Bacillus subtilis [27]): 25 µg/mL (≈ 61.1 µM)
- MIC (Pseudomonas aeruginosa [28]): 50 µg/mL (≈ 122 µM)

SMILES: Oc1ccc(C2=NNC(c3ccc(Cl)cc3)C2)cc1 (centres undefined)
- Activity (Mus musculus [29]): 17.67
- Time (Mus musculus [30]): 21.17 s
- Time (Mus musculus [31]): 21.17 s

SMILES: O=c1[nH]cc(F)c(=O)[nH]1 [FLUOROURACIL]
- CC50 [32]: 13 µM
- CC50 [33]: 13 µM
- IC50 (MCF7): 30 µg/mL (≈ 231 µM)
- CC50 (HSC-2): 13 µM
- CC50 (Ca9-22): 13 µM
- CC50 [34]: 13 µM
- CC50 (HSC-3): 13 µM
- IC50 (HepG2 [35]): 33.5 µg/mL (≈ 258 µM)

SMILES: O=C(c1ccncc1)N1N=C(c2ccc(Cl)cc2Cl)CC1c1cc2ccccc2nc1Cl (centres undefined)
- MIC (Streptococcus pyogenes): 12.5 µg/mL
- MIC (Aspergillus clavatus): 50 µg/mL (≈ 104 µM)
- MIC (Aspergillus niger [36]): 12.5 µg/mL (≈ 25.9 µM)
- MIC (Staphylococcus aureus [37]): 12.5 µg/mL
- MIC (Candida albicans [38]): 12.5 µg/mL (≈ 25.9 µM)
